Test results taken from patent US9241976B2, “Use of HDL-related molecules to treat and prevent proinflammatory conditions” (THE REGENTS OF THE UNIVERSITY OF CALIFORNIA, priority 2011, dated 2016).

Tests used:
CT26 cells [1] = test: CT26 proliferation assay (BrdU incorporation); type: cell-based, mouse; details: Example 5; 10 mg/mL, 48 hours
Method: The bHDL were dissolved in H2O.
The peptides were dissolved in H2O.

NIH3T3 cells = test: NIH3T3 cell viability, MTS assay; type: cell-based; details: 10 μg/mL, 48 hours
Method: CT26 and NIH3T3 cells (2,000 cells per well) were first cultured in complete medium in 96-well culture plates, and 24 hours later the medium was replaced with serum-free medium. […] Cells were incubated for an additional 48 hours and assayed for viability using MTS assays kit (Promega) according to the manufacturer's protocol.

CT26 cells [2] = test: Pulmonary metastasis in vivo: CT26 lung tumors in BALB/c mice; set-up: species or system mouse; details: CT26 via tail vein
Method: BALB/c mice were intravenously injected with 2×10^4 CT26 cells in 100 μL of PBS via tail vein injection and the mice were treated with bHDL at 10 mg/kg/day administered SQ for 3 weeks; or treated with bHDL at 100 mg/kg/day administered in a chow diet for 3 weeks. After 3 weeks treatment, the mice were sacrificed; lungs were harvested, weighed and fixed with Bouin's solution (Sigma). Tumor nodules on the lung surface were counted.
BALB/c mice were intravenously injected with 2×10^4 CT26 cells in […] of PBS via tail vein injection and the mice were treated with L-4F or sc-4F at 10 mg/kg/d administered subcutaneously for 3 weeks, or treated with sc-4F or L-4F or G* peptide at 100 mg/kg/d administered in a chow diet for 3 weeks. After 3 weeks treatment, the mice were sacrificed; lungs were harvested, weighed, and fixed with Bouin solution (Sigma). Tumor nodules on the lung surface were counted.

[3] = test system: lysophosphatidic acid (LPA); test: Plasma LPA levels in treated mice; type: in vivo, mouse; details: for plasma LPA levels: vs control mice
Method: LPA (20:4) was purchased from Avanti Polar Lipids. LPA levels were determined as described previously (Murph et al., 2007, Methods Enymol 433:1-25).
(§1) LPA (20:4) was purchased from Avanti Polar Lipids. LPA levels were determined as described previously (19).

LPA = LPA levels in CT26 cell culture medium; type: cell-based, mouse; details: CT26 cells; 48 hours; vs control medium
Method: FIGS. 17A-17B. HDL mimetic, L-4F inhibits LPA induced viability of CT26 cells and reduces LPA levels in cell culture medium. FIG. 17A, CT26 cells were cultured as described in Example 5 and incubated with either L-4F at 10 mg/mL or LPA at a concentration 5, 10, […], or cells were treated with both L-4F and LPA for 48 hours. All experiments were conducted in triplicate and each assay was carried out in quadruplicates. Data are represented as the mean±SD of the percent of control cells. FIG. 17B, LPA levels were measured in the cell culture medium after 48 hours of treatment.
as §1
LPA has been identified as an important mediator of tumor development, progression, and metastases in humans (26, 27). We have previously shown that apoAI mimetic peptides inhibit LPA-induced viability of ID8 cells and reduce serum LPA levels in mice injected with ID8 cells (17). […] LPA 20:4 and 18:1 were not detectable in cell culture medium (FIG. 17B).

[4] = test system: VEGF, glucose transporter 1, and aldolase-A; test: HIF-1α target gene mRNA, real-time RT-PCR in OV2008 cells; type: cell-based, human; details: 10 μg/ml pretreatment 1 h
Method: Total RNA was extracted from cells by using a PureLink RNA Mini Kit (Invitrogen). The quantity and quality of RNA were assessed by using a SmartSpec 3000 Spectrophotometer (Bio-Rad Laboratories, Hercules, Calif.). cDNA was synthesized by using the High Capacity cDNA Reverse Transcription Kit (Applied Biosystems, Foster City, Calif.) according to the manufacturer's instructions. PCRs were performed by using the CFX96 realtime PCR system (Applied Biosystems). The cycling conditions were as follows: 3 min at 95° C. followed by 40 cycles of 95° C., 10 s; 60° C., 10 s; 72° C., 30 s followed by a final extension at 72° C. for 10 min. Each 25-μl reaction contained 0.4 μg of cDNA, 12.5 μl of SYBR Green qPCR SuperMix (Bio-Rad Laboratories), and 250 nM forward and reverse primers in nuclease-free water. […]

CT26 cells [5] = details: BALB/c, mouse, 48 hours
Method: (§2) CT26 cell line derived from N-nitroso-N-methyl urethane-induced mouse colon carcinoma of BALB/c origin was purchased from the American Type Culture Collection (ATCC). CT26 cells (2,000 cells per well) were first cultured in complete medium in 96-well culture plates, and 24 hours later the medium was replaced with serum free medium. Following an overnight incubation, the cells were either treated with vehicle (control), or treated with 10 μg/mL of either bHDL. The bHDL were dissolved in H2O. Cells were incubated for an additional 48 hours and assayed for viability using the MTS assays kit (Promega) according to the manufacturer's protocol.
(§3) CT26 cell line derived from N-nitroso-N-methyl urethane-induced mouse colon carcinoma of BALB/c origin was purchased from the American Type Culture Collection. CT26 cells (2,000 cells per well) were first cultured in complete medium in 96-well culture plates, and 24 hours later the medium was replaced with serum-free medium. Following an overnight incubation, the cells were either treated with vehicle (control) or treated with 10 mg/mL of either L-4F or G* peptide. The peptides were dissolved in H2O. Cells were incubated for an additional 48 hours and assayed for viability using the MTS assay kit (Promega) according to the manufacturer's protocol.

CT26 cells [6] = test: CT26 cell viability, MTS assay; details: Example 6; MTS assay, within 48 hours of treatment
Method: as §2, §3

[7] = 10 mg/kg/d subcutaneously for 3 weeks
[8] = 100 mg/kg/d in chow diet for 3 weeks

Ac-DWFKAFYDKVAEKFKEAF-NH2 [L-4F, Ac-D-W-F-K-A-F-Y-D-K-V-A-E-K-F-K-E-A-F-NH2]
proliferation of CT26 cells, BrdUrd incorporation (CT26 cells [1]): significantly inhibited
NIH3T3 cell viability (NIH3T3 cells): not affected
lung weights (CT26 cells [2]; [7]): 225 mg
tumor numbers counted on the lung surface (CT26 cells [2]; [7]): 18
lung weights (CT26 cells [2]; [8]): 238 mg
tumor numbers on the lung surface (CT26 cells [2]; [8]): 12
plasma LPA levels ([3]; BALB/c lung tumor mice, 100 mg/kg/d in chow for 3 weeks): significantly reduced
plasma LPA levels ([3]; C57BL/6J-APC^min/+ mice, 100 mg/kg/d in mouse chow for 8 weeks): significantly reduced
decrease of plasma LPA levels compared with control mice ([3]; C57BL/6J-APC^min/+ mice, chow, 8 weeks): > 50%
LPA 16:0 and 18:0 levels in cell culture medium (LPA): significantly decreased
CoCl2- and insulin-induced increase in mRNA levels of HIF-1α target genes [4]: abrogated
Cell viability reduced by, compared with control (CT26 cells [5]; 10 μg/mL): more than 20%
Cell viability reduced, compared with control (CT26 cells [5]; 10 mg/mL): more than 25%
CT26 cell viability vs vehicle-treated controls (CT26 cells [6]): reduced cell viability
